target: T1, human neutrophil elastase (HNE) (Homo sapiens, UniProt P08246); experiment: HNE induced lung haemorrhage in the rat; type: in vivo; conditions: male Sprague Dawley rats, compound dosed locally to the lung (i.t. or i.n.) before HNE, blood in BALF one hour post HNE challenge
T1 sequence (P08246 30-267): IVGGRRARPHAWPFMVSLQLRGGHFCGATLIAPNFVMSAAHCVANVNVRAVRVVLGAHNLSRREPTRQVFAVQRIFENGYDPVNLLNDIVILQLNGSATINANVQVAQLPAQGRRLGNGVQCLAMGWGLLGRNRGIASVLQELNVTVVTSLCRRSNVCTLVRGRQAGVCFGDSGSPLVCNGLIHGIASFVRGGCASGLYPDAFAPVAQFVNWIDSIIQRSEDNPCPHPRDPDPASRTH
Source text: HNE Induced Lung Haemorrhage in the Rat
Instillation of human neutrophil elastase (HNE) into rat lung causes acute lung damage. The extent of this injury can be assessed by measuring lung haemorrhage. Male Sprague Dawley rats (175-220 g) were obtained from Harlan UK Ltd., full barrier-bred and certified free from specified micro-organisms on receipt. Animals were weighed and randomly assigned to treatment groups (7-12 animals per group).
The vehicle used was 1% DMSO/Saline. Inhibitors were dissolved in 1% DMSO before the addition of 0.9% saline.
Animals in each study used to determine the efficacy of the elastase inhibitors delivered locally to the lung by a variety of routes. Rats were anaesthetised with the inhaled anaesthetic isoflurane (4%) when the dose was given from 30 minutes to 6 h prior to human neutrophil elastase ([…]) administration or terminally anaesthetised with hypnorm:hypnovel:water (1.5:1:2 at 2.7 ml/kg) when the predose was given at less than 30 minutes prior to HNE administration and dosed either intratracheally (i.t.) by transoral administration using a Penn Century microsprayer or intranasally (i.n.) by dropping the fluid on to the nares. Animals either received vehicle or compound at a dose volume of 0.5 ml/kg.
Animals that had been allowed to recover after dosing were terminally anaesthetised with hypnorm:hypnovel:water (1.5:1:2 at 2.7 ml/kg). Once sufficiently anaesthetised, HNE (600 units/ml) or sterile saline was administered by transoral tracheal instillation at a volume of 100 μl using a Penn Century microsprayer. Animals were kept warm in a temperature controlled box and given top up doses of anaesthetic as required to ensure continuous anaesthesia until termination.
Animals were sacrificed (0.5 ml to 1 ml sodium pentobarbitone) one hour post HNE challenge. The trachea was exposed and a small incision made between two tracheal rings allowing a cannula (10 gauge, O.D. 2-10 mm, Portex Ltd.) to be inserted approximately 2 cm into the trachea towards the lung. This was secured into place with a cotton ligature. The lungs were then lavaged (BAL) three times with fresh 4 ml aliquots of heparinised (10 units/ml) phosphate buffered saline (PBS). The resultant BALF was kept on ice until it was centrifuged.
The BALF was centrifuged at 1000 r.p.m. for 10 minutes in a centrifuge cooled to between 4 and 10° C. The supernatant was discarded and the cell pellet resuspended in 1 ml 0.1% CETAB/PBS to lyse the cells. Cell lysates were frozen until spectrophotometric analysis for blood content could be made. Standards were prepared by making solutions of whole rat blood in 0.1% CETAB/PBS.
Once defrosted 100 μl of each lysed cell suspension was placed into a separate well of a 96 well flat bottomed plate. All samples were tested in duplicate and 100 μl 0.1% CETAB/PBS was included on the plate as a blank. The OD of the contents of each well was measured at 415 nm using a spectramax 250 (Molecular devices).
A standard curve was constructed by measuring the OD (at 415 nm) of different concentrations of blood in 0.1% CETAB/PBS (30, 10, 7, 3, 1, 0.3, 0.1 μl/ml).
The amount of blood in each experimental sample was calculated by comparison to the standard curve. Data were then analysed as below:
1) The mean OD for duplicates was calculated
2) The value for the blank was subtracted from the value for all other samples
3) Data were assessed to evaluate the normality of distribution.

**Q.** With CN(CCCN1CC2=C(C1=O)[C@@H](c1ccc(C#N)cc1)NC(=O)N2c1cccc(C(F)(F)F)c1)CCCN1CC2=C(C1=O)[C@@H](c1ccc(C#N)cc1)NC(=O)N2c1cccc(C(F)(F)F)c1 [Example 17] as the molecule, how does the “reducing the quantity of blood haemorrhaged relative to control” value read?
**A.** effective in reducing the quantity of blood haemorrhaged

**Q.** N#Cc1ccc([C@H]2NC(=O)N(c3cccc(C(F)(F)F)c3)C3=C2C(=O)N(CCCNCCCN2CC4=C(C2=O)[C@@H](c2ccc(C#N)cc2)NC(=O)N4c2cccc(C(F)(F)F)c2)C3)cc1.O=CO [Example 18] was tested. Which “reducing the quantity of blood haemorrhaged relative to control” value did it give?
**A.** effective in reducing the quantity of blood haemorrhaged

**Q.** For CCN1CC2=C(C1=O)[C@@H](c1ccc(C#N)cc1)N(CC(=O)NCCNC(=N)NCCNC(=O)CN1C(=O)N(c3cccc(C(F)(F)F)c3)C3=C(C(=O)N(CC)C3)[C@H]1c1ccc(C#N)cc1)C(=O)N2c1cccc(C(F)(F)F)c1 [Example 30], which “reducing the quantity of blood haemorrhaged relative to control” value is on record?
**A.** effective in reducing the quantity of blood haemorrhaged

**Q.** For C[N+](C)(CCCN1CC2=C(C1=O)[C@@H](c1ccc(C#N)cc1)NC(=O)N2c1cccc(C(F)(F)F)c1)CCCN1CC2=C(C1=O)[C@@H](c1ccc(C#N)cc1)NC(=O)N2c1cccc(C(F)(F)F)c1.[I-] [Example 32], which “reducing the quantity of blood haemorrhaged relative to control” value is on record?
**A.** effective in reducing the quantity of blood haemorrhaged

**Q.** How did the “reducing the quantity of blood haemorrhaged relative to control” value turn out when C[N+](C)(CCCN1CC2=C(C1=O)[C@@H](c1ccc(C#N)cc1)N(CC(=O)O)C(=O)N2c1cccc(C(F)(F)F)c1)CCCN1CC2=C(C1=O)[C@@H](c1ccc(C#N)cc1)N(CC(=O)O)C(=O)N2c1cccc(C(F)(F)F)c1.O=C([O-])C(F)(F)F [Example 41] was run?
**A.** effective in reducing the quantity of blood haemorrhaged

**Q.** Which “reducing the quantity of blood haemorrhaged relative to control” value does the source give for N#Cc1ccc([C@H]2NC(=O)N(c3cccc(C(F)(F)F)c3)C3=C2C(=O)N(CCN2CCN(CCN4CC5=C(C4=O)[C@@H](c4ccc(C#N)cc4)NC(=O)N5c4cccc(C(F)(F)F)c4)C2=N)C3)cc1 [Example 43] here?
**A.** effective in reducing the quantity of blood haemorrhaged

**Q.** With C[N+](CCCN1CC2=C(C1=O)[C@@H](c1ccc(C#N)cc1)NC(=O)N2c1cccc(C(F)(F)F)c1)(CCCN1CC2=C(C1=O)[C@@H](c1ccc(C#N)cc1)NC(=O)N2c1cccc(C(F)(F)F)c1)CC(=O)[O-] [Example 49] as the molecule, how does the “reducing the quantity of blood haemorrhaged relative to control” value read?
**A.** effective in reducing the quantity of blood haemorrhaged

**Q.** How did the “reducing the quantity of blood haemorrhaged relative to control” value turn out when C[N+](C)(CCCN1CC2=C(C1=O)[C@@H](c1ccc(C#N)cc1)NC(=O)N2c1cccc(C(F)(F)F)c1)CCCN1CC2=C(C1=O)[C@@H](c1ccc(C#N)cc1)NC(=O)N2c1cccc(C(F)(F)F)c1.O=C[O-] [Example 59] was run?
**A.** effective in reducing the quantity of blood haemorrhaged

**Q.** C[N+](C)(CCCCN1CC2=C(C1=O)[C@@H](c1ccc(C#N)cc1)NC(=O)N2c1cccc(C(F)(F)F)c1)CCCOc1ccccc1.[Br-] [Example 61] was tested. Which “reducing the quantity of blood haemorrhaged relative to control” value did it give?
**A.** effective in reducing the quantity of blood haemorrhaged

**Q.** For C[N+](CCCCN1CC2=C(C1=O)[C@@H](c1ccc(C#N)cc1)NC(=O)N2c1cccc(C(F)(F)F)c1)(CCCOc1ccccc1)CCCOc1ccccc1.O=C[O-] [Example 64], which “reducing the quantity of blood haemorrhaged relative to control” value is on record?
**A.** effective in reducing the quantity of blood haemorrhaged

same assay, conditions: rat, 30 mg/kg it, 1 hour prior to HNE; statistically significant

**Q.** Which “reduction in haemorrhage relative to control” value does the source give for C[N+](C)(CCCN1CC2=C(C1=O)[C@@H](c1ccc(C#N)cc1)NC(=O)N2c1cccc(C(F)(F)F)c1)CCCN1CC2=C(C1=O)[C@@H](c1ccc(C#N)cc1)NC(=O)N2c1cccc(C(F)(F)F)c1.[I-] [Example 32] here?
**A.** 67%

target: T2, human leukocyte elastase (HNE) (Homo sapiens, UniProt P08246); experiment: HNE inhibitory activity (fluorescent peptide substrate / fluorescently labelled elastin assays); type: biochemical; conditions: which of the two substrate assays is not stated
T2 construct: purchased Sigma E8140
T2 sequence (P08246 30-247 limits assumed): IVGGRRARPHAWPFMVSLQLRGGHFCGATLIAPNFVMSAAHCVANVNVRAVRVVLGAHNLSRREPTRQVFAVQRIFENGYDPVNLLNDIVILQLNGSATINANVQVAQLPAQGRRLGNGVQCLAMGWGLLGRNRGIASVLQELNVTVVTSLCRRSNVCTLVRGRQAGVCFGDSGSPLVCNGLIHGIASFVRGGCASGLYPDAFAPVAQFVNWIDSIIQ
Description: Compounds of the invention were tested for their HNE inhibitory activity.
Fluorescent Peptide Substrate
Assays were performed in 96-well plates at a total assay volume of 100 μl. The final concentration of the enzyme (human leukocyte elastase, Sigma E8140) was 0.00036 units/well. A peptide substrate (MeO-Suc-Ala-Ala-Pro-ValAMC, Calbiochem #324745) was used, at the final concentration of 100 μM. The final concentration of DMSO was 1% in the assay buffer (0.05M Tris.HCl, pH 7.5, 0.1M NaCl; 0.1M CaCl2; 0.0005% brij-35).
The enzymatic reaction was started by adding the enzyme. The enzymatic reaction was performed at RT and after 30 mins stopped by adding 50 μl soybean trypsin inhibitor (Sigma T-9003) at a final concentration of 50 μg/well. Fluorescence was read on the FLEXstation (Molecular Devices) using 380 nm excitation and 460 nm emission filters. […] The results are means of two independent experiments, each performed in duplicate.
Using Fluorescently Labelled Elastin
Assays were performed in 96-well plate at a total assay volume of 100 μl. The final concentration of the enzyme (human leukocyte elastase, Sigma E8140) was 0.002 units/well. […]
The enzymatic reaction was started by adding the enzyme. The enzymatic reaction was performed at RT and read after 120 minutes. Fluorescence was read on the FLEXstation (Molecular Devices) using 485 nm excitation and 530 nm emission filters. […]

**Q.** With CN(CCCN1CC2=C(C1=O)[C@@H](c1ccc(I)cc1)NC(=O)N2c1cccc(C(F)(F)F)c1)CCCN1CC2=C(C1=O)[C@@H](c1ccc(I)cc1)NC(=O)N2c1cccc(C(F)(F)F)c1 [Example 23] as the molecule, how does the IC50 read?
**A.** 50 to 500 nM
